Assay results: patent EP0533724B1, “CALCIUM CITRATE MALATE COMPOSITION” (THE PROCTER & GAMBLE COMPANY, priority 1990, dated 1991)

Test: physchem
Details: water
Description: The exact method for determining this is described hereinafter.

## O=C(O)CC(O)C(=O)O (stereo not shown) [calcium malate]
  solubility at 0.5 h: 660 mg/mL
